According to publication PMC10688702, “The indole motif is essential for the antitrypanosomal activity of N^5-substituted paullones” (PLOS ONE, 2023):

Key:
[1] = Thermodynamic aqueous solubility, shake-flask method and HPLC-UV; format: physicochemical; settings: phosphate-buffered saline, aqueous buffer, thermodynamic from solid, PBS pH 7.4, 25°C, up to 72 h, HPLC-UV, logS of molar solubility [M]
Method: (§1) Phosphate-buffered saline pH 7.4 was prepared according to the European Pharmacopeia 10.4 by dissolving 2.38 g sodium monohydrogen phosphate dodecahydrate, 0.19 g potassium dihydrogen phosphate and 8.0 g sodium chloride in demineralised water (to a total volume of 1000 mL). The pH was adjusted to a value of 7.4 with hydrochloric acid. The buffer was filtered through a 0.45 μm membrane filter (Chromafil® Xtra PES-45/25) before use.
The thermodynamic aqueous solubility was determined by a miniaturised shake-flask method. […] A negative control with the buffer (400 μL) was incubated for every time point and measured likewise. After incubation for 24 h, 48 h and 72 h, the vials were checked for undissolved compound; then the filter plunger was punched into the vial for filtration. […] The calibration curve was obtained from at least three dilutions and five measuring points from a DMSO stock solution of the respective compound.

[2] = target: T1, trypanothione synthetase of L. infantum (LiTryS) (Leishmania infantum, UniProt A4I2Z3); assay: TryS activity screening assay on recombinant LiTryS; format: biochemical; settings: read-out: LiTryS activity [% at 30 μM]
T1 sequence (A4I2Z3 entry or part of it): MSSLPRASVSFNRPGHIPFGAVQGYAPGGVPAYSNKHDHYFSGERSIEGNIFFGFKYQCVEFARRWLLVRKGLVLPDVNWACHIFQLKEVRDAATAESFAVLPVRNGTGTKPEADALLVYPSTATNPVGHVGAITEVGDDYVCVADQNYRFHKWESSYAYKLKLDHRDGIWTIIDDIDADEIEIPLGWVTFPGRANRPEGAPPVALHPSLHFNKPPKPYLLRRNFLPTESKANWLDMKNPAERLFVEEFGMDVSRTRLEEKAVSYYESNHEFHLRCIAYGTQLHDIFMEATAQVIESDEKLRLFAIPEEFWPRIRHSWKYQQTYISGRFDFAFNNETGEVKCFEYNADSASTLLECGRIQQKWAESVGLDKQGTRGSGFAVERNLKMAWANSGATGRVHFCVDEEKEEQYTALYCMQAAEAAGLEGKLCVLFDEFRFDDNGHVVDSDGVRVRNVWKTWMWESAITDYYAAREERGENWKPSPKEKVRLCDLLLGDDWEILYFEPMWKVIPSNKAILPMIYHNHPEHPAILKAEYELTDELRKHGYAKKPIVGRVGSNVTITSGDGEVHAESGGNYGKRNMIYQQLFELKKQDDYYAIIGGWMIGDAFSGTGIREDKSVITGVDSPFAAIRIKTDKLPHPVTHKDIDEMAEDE
Outline: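 N-His-tagged TryS from E. coli, purified by IMAC and SEC; end-point reaction with 150 μM ATP, 2 mM Spd, GSH 0.05 mM (TbTryS) or 0.25 mM (LiTryS), enzyme 3*10^−5 (TbTryS) or 2*10^−5 (LiTryS) μmol*min^-1*mL^-1. Stopped after 15 min with BIOMOL GREEN; A650 activity relative to blank-corrected DMSO control.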

[3] = Kinetic aqueous solubility by nephelometry; format: physicochemical; settings: phosphate-buffered saline, aqueous buffer, kinetic from dmso stock, PBS pH 7.4, 1% DMSO, 25°C, logS = decadic logarithm of molar solubility [M]
Method: as §1
The kinetic aqueous solubility was determined by nephelometry. The measurements were performed on the NEPHELOstar Plus, with accompanying software Omega 5.11 and MARS 3.20 (BMG LABTECH, Ortenberg, Germany). Generally, 2 dilution series of 1–2 weighed portions of each substance were measured. First, stock solutions of the compounds were prepared in DMSO. A series of dilutions in DMSO were prepared from one stock solution to obtain at least 3 concentrations below and 3 concentrations above the precipitation point in the measured series. The specific concentrations were usually measured as duplicates.
The 96-well plate (Corning UV transparent flat-bottom 96-well plate, Corning Incorporated, Kennenbunk, ME, USA) was inspected for contamination and scratches and measured without samples prior to the solubility measurement of the compounds. 198 μL of phosphate-buffered saline pH 7.4 was placed in a 96 well plate for each well to be measured. 2 μL of a DMSO solution was added and immediately mixed by moving the pipette plunger. This solution either contained no substance—and served as a blank for the measurement (3 wells)—or the respective DMSO dilution of the substance (2–4 wells). The concentration of the solvent DMSO in each measured solution was 1%. The concentration of the compound corresponds to a 1:100 dilution compared to the respective DMSO dilution. The well plate bottom was cleaned with a lint-free cloth and compressed air and inspected for impurities before measurement. After shaking at 500 rpm for 10 s (double orbital), the measurement was carried out in the nephelometer with the laser intensity set to 80% and beam focus of 2.5 mm at a temperature of 25°C.
The obtained measuring points, relative nephelometric units (RNU) per compound concentration, were used to model two straight lines: one straight line with constant low readings and slope → 0 characterises the concentration range where no precipitation has taken place yet; The other straight line has a steep slope and increase of the RNU per concentration and characterises the concentrations at which precipitation takes place in the respective sample vessels.
The evaluation was carried out by calculating the two straight lines and their point of intersection. Outliers and values in a saturation range for the kick-off curve (usually >800 kRNU) were not used to create the straight lines and are listed separately in the evaluation file. […] The x-value of the intersection of the two straight lines represents the kinetic solubility. The results of two dilution series are additionally indicated as range (in brackets). For measurements of 3 or more series, a mean value with standard deviation is provided. The logS value describes the decadic logarithm of the molar solubility: logS (molar solubility [M]).

[4] = tested on: Crithidia fasciculata TryS (CfTryS); set-up: method as in ref 24–26 = [24]; 24 Stuhlmann F, Jäger T, Flohé L, Schinzer D, inventors. N 5 -substituted benzo[2,3]azepino[4,5- b ]indol-6-ones for treating tropical diseases. European Patent Office patent EP 1 757 607 A1. 2007 Feb || [25]; PMID 27070550; doi:10.1371/journal.pntd.0004617; 25 Benítez D , Medeiros A , Fiestas L , Panozzo-Zenere EA , Maiwald F , Prousis KC , et al . Identification of novel chemical scaffolds inhibiting trypanothione synthetase from pathogenic trypanosomat || [26]; PMID 32588679; doi:10.1080/14756366.2020.1780227; 26 Medeiros A , Benítez D , Korn RS , Ferreira VC , Barrera E , Carrión F , et al . Mechanistic and biological characterisation of novel N 5 -substituted paullones targeting the biosynthesis of trypan; settings: cited from earlier work
[5] = tested on: bloodstream form of T. b. brucei strain 427; set-up: method as in PMID 27070550; settings: displayed for comparison, read-out: T. b. brucei (BS) [EC50; cited from earlier work
[6] = tested on: trypanothione synthetase of T. b. brucei (TbTryS); set-up: method as in PMID 27070550; settings: cited from earlier work
[7] = tested on: LiTryS; set-up: method as in ref 25, 26 = [25]; PMID 27070550; doi:10.1371/journal.pntd.0004617; 25 Benítez D , Medeiros A , Fiestas L , Panozzo-Zenere EA , Maiwald F , Prousis KC , et al . Identification of novel chemical scaffolds inhibiting trypanothione synthetase from pathogenic trypanosomat || [26]; PMID 32588679; doi:10.1080/14756366.2020.1780227; 26 Medeiros A , Benítez D , Korn RS , Ferreira VC , Barrera E , Carrión F , et al . Mechanistic and biological characterisation of novel N 5 -substituted paullones targeting the biosynthesis of trypan; settings: versus substrates Spd, Gsp, ATP, GSH; cited from earlier work
[8] = target: T1, trypanothione synthetase of L. infantum (LiTryS); settings: Fig 3, known paullones; cited from earlier work
[9] = tested on: L. infantum amastigotes (intracellular, in J774.A1 macrophages); assay: Viability assay for L. infantum amastigotes; format: cell-based; settings: Leishmania infantum, J774.A1, 24 h, read-out: L. infantum amastigote viability [% at 20 μM]
Outline: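 Luciferase-expressing L. infantum metacyclic promastigotes (MHOM/MA/67/ITMAP263) infected J774.A1 murine macrophages at 1:10 for 24 h at 37 °C, 5% CO2. After compound treatment, a further 24 h incubation followed. Percent amastigote viability, in triplicate, was normalised to host-cell density by a propidium iodide correction factor.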

[10] = tested on: TryS; set-up: method as in Torrie et al. 18; settings: ref Torrie et al. 18; cited from earlier work

Structure (SMILES)	solubility thermodynamic at 72 h [1]	activity at 30 µM [2]	solubility kinetic at 10 s [3]	viability at 20 µM [9]	other results
CON=C1CCC(=O)N(CC(=O)N2CCCC2)c2ccccc21 (mixture of isomers) [5c, (E/Z)-5-(Methoxyimino)-1-[2-oxo-2-(pyrrolidin-1-yl)ethyl]-1,3,4,5-tetrahydro-2H-benzo[b]azepin-2-one]	0.0263 M	86.9 ± 3.6%	> 0.00398 M	–	–
CNCCNC(=O)CN1C(=O)Cc2c([nH]c3ccc(Br)cc23)-c2ccccc21 [1b]	–	–	–	–	CfTryS inhibition at 10 μM compound concentration [4]: 92%
CNCCNC(=O)CN1C(=O)Cc2c([nH]c3ccc(Br)cc23)-c2ccc(Cl)cc21 [1c]	–	–	–	–	EC50 [5]: 4.3 ± 0.7 µM; TbTryS activity [% at 30 μM] ([6]; 30 μM, displayed for comparison): 41.0 ± 6.0%; IC50 ([6]; used as inhibition control, read-out: concentration that inhibited 50% TryS activity (TbTryS)): 30 µM; inhibition mechanism on LiTryS [7]: competitive to Spd and Gsp, and uncompetitive to ATP and GSH
NCCNC(=O)CN1C(=O)Cc2c([nH]c3ccc(Br)cc23)-c2ccc(Cl)cc21 [1d]	–	–	–	–	IC50 [8]: 0.3 µM
O=C(CN1C(=O)CCCc2ccccc21)N1CCCC1 [2j, 1-[2-Oxo-2-(pyrrolidin-1-yl)ethyl]-1,3,4,5-tetrahydro-2H-benzo[b]-azepin-2-one]	> 0.049 M	100 ± 6.6%	> 0.00398 M	–	–
Cl.Cl.O=C(CN1C(=O)CCCc2ccccc21)NCCN1CCNCC1 [2o, 2-(2-Oxo-2,3,4,5-tetrahydro-1H-benzo[b]azepin-1-yl)-N-[2-(piperazin-1-yl)ethyl]acetamide dihydrochloride]	> 0.248 M	98.8 ± 18.7%	> 0.001 M	98.4 ± 11.8%	–
CC1(C)CCc2ccccc2N(CC(=O)NCCN2CCNCC2)C1=O.Cl.Cl [3d, 2-(3,3-Dimethyl-2-oxo-2,3,4,5-tetrahydro-1H-benzo[b]azepin-1-yl)-N-[2-(piperazin-1-yl)ethyl]acetamide dihydrochloride]	> 0.114 M	100 ± 5.1%	> 0.002 M	78.1 ± 14.4%	–
Cl.Cl.O=C(CN1C(=O)Cc2ccccc2-c2ccccc21)NCCN1CCNCC1 [4d, 2-(6-Oxo-6,7-dihydro-5H-dibenzo[b,d]azepin-5-yl)-N-[2-(piperazin-1-yl)ethyl]acetamide dihydrochloride]	> 0.0562 M	99.5 ± 3.1%	> 0.0002 M	89.5 ± 2.8%	–
CN1CCN(CCCN2c3ccccc3Sc3ccc(Cl)cc32)CC1 [prochlorperazine]	–	–	–	–	mode of TryS inhibition [10]: Spd competitive behaviour
